Test results as given in patent US9453008B2, “Antithrombotic and antiatherosclerotic agent and method for producing same (variants)” (PROTON OOO, priority 2011, dated 2016).
One block for each compound: values may come before it.

Legend:
[1] = test system: pressor effect of angiotensin I; assay: Pressor effect of angiotensin I after intravenous administration in normotensive narcotized rats; format: in vivo, rat
Procedure: (§1) The experiments were performed on spontaneously hypertensive (SHT) and normotensive (NT) narcotized male rats using intravenous administration of the tested compounds. The ability of the compound to reduce arterial blood pressure (BP) in SHT rats and prevent spasmogenic reactions to noradrenalin (NA) and angiotensin I (AI).
(§2) The effects of the compound of formula I on the pressor effects of noradrenaline (NA, 10-15 μg/kg), mesatonum (M, 5 μg/kg) and angiotensin (AI, 5 μg/kg) were studied on normotensive narcotized […]. Antihypertensive action of the compound of formula I was assessed relative to the pressor effects of the control administration of the aforementioned compounds.

[2] = test system: pressor effect of noradrenaline; assay: Pressor effect of noradrenaline after intravenous administration in normotensive narcotized rats; format: in vivo, rat
Procedure: as §1, §2

[3] = test system: spontaneously hypertensive (SHT) rats; assay: Blood pressure in narcotized SHT rats, intravenous administration; format: in vivo, rat
Procedure: as §1
The compound of formula I was used as a solution in 3% aqueous DMSO. Sodium nitroprusside and nitroglycerin were used as reference drugs.
The administration of the compound of formula I in dose range 0.01-0.1-0.5 and 1.0 mg/kg has exerted dose-dependent antihypertensive effect ranging in time from 30-40 s to 60 min and more.

non-narcotized SHT rats = assay: Blood pressure in non-narcotized SHT rats, intragastric administration (non-invasive BP measurement); format: in vivo, rat; conditions: 10 mg/kg orally, 0 - absence of effect
Procedure: In experiments on non-narcotized SHT rats intragastric administration of the compound of formula I has caused dose-dependent reduction of BP, the duration of which was increased correspondingly with dose increase (maximal duration of effect 5 hours after single administration of 50 mg/kg dose, Table 3).

[4] = higher doses (above 0.01 mg/kg) intravenous

melting point: 222 to 226 °C (dec.)
Compound: CN1CCOC1=C(C#N)C=C1Nc2ccccc2C1=O [IX, 2-[2-Cyano-2-(3-methyloxazolidin-2-ylidene)ethylidene]indolin-3-one]

melting point: 237 °C (dec.)
Compound: CN1CC(C(O)C(O)C(O)CO)OC1=C(C#N)C=C1Nc2ccccc2C1=O (stereo not shown) (hydrate or solvate) [X, 2-[2-Cyano-2-[3-methyl-5-(1,2,3,4-tetrahydroxybutyl)oxazolidin-2-ylidene]ethylidene]indolin-3-one]

Compound: O=[N+]([O-])OCC(CO[N+](=O)[O-])O[N+](=O)[O-] [Nitroglycerin, reference compound]
Inhibition of pressor reaction (%) induced by Angiotensin I ([1]; 0.5 mg/kg intravenous, 0 - absence of effect): 0%
Inhibition of pressor reaction (%) induced by Angiotensin I ([1]; 1.0 mg/kg intravenous): 25-30%
Inhibition of pressor reaction (%) induced by Noradrenaline ([2]; 0.5 mg/kg intravenous): 20-25%
Inhibition of pressor reaction (%) induced by Noradrenaline ([2]; 1.0 mg/kg intravenous): 40-50%
Duration of BP reduction ([3]; 0.01 mg/kg dose intravenous): 30 to 40 s
Reduction of BP ([3]; 0.01 mg/kg dose intravenous): 10-15 mmHg
Reduction of BP, mmHg (Δ) ([3]; 0.01 mg/kg intravenously, 10-20 s): −5 mmHg
Reduction of BP, mmHg (Δ) ([3]; 0.01 mg/kg intravenously, 5 min): −10 ± 3 mmHg
Reduction of BP, mmHg (Δ) ([3]; 0.01 mg/kg intravenously, 30 min): −3 mmHg
Reduction of BP, mmHg (Δ) ([3]; 0.1 mg/kg intravenously, 10-20 s): −7 ± 3 mmHg
Reduction of BP, mmHg (Δ) ([3]; 0.1 mg/kg intravenously, 5 min): −20 ± 5 mmHg
Reduction of BP, mmHg (Δ) ([3]; 0.1 mg/kg intravenously, 30 min): −5 mmHg
Reduction of BP, mmHg (Δ) ([3]; 0.5 mg/kg intravenously, 10-20 s): −12 ± 3 mmHg
Reduction of BP, mmHg (Δ) ([3]; 0.5 mg/kg intravenously, 5 min): −25 ± 7 mmHg
Reduction of BP, mmHg (Δ) ([3]; 0.5 mg/kg intravenously, 30 min): −5 mmHg
Reduction of BP, mmHg (Δ) ([3]; 1.0 mg/kg intravenously, 10-20 s): −10 ± 3 mmHg
Reduction of BP, mmHg (Δ) ([3]; 1.0 mg/kg intravenously, 5 min): −25 ± 8 mmHg
Reduction of BP, mmHg (Δ) ([3]; 1.0 mg/kg intravenously, 30 min): −7 ± 3 mmHg
Duration of BP reduction [3, 4]: 300 to 360 s
Reduction of BP [3, 4]: 20-25 mmHg
Reduction of BP, mmHg (non-narcotized SHT rats; time column 1, 1 h after dosing): 0 mmHg
Reduction of BP, mmHg (non-narcotized SHT rats; time column 2, 2 h after dosing): 0 mmHg
Reduction of BP, mmHg (non-narcotized SHT rats; time column 3, 3 h after dosing): 0 mmHg
Reduction of BP, mmHg (non-narcotized SHT rats; time column 4, 4 h after dosing): 0 mmHg
Reduction of BP, mmHg (non-narcotized SHT rats; time column 5, 5 h after dosing): 0 mmHg
Reduction of BP, mmHg (non-narcotized SHT rats; time column 6, 6 h after dosing): 0 mmHg
